Test results published in the supplement of paper PMC10878532, “Sperm Toolbox—A selection of small molecules to study human spermatozoa” (PLOS ONE, 2024).
Where a name gives a salt, the structure may show the parent alone.

How the values were obtained:
[1] = test system: human spermatozoa; test: acrosome-reacted (PNA+) sperm after agonist cocktail, percent change vs DMSO (capacitating); higher = more of the measured sperm population than DMSO, for viability, fewer PI-positive (dead) cells than DMSO; settings: incubation time: 3h, capacitating + agonist cocktail 1h
[2] = test system: human spermatozoa; test: hyperactivated motile sperm, percent change vs DMSO (capacitating); higher = more of the measured sperm population than DMSO, for viability, fewer PI-positive (dead) cells than DMSO; settings: incubation time: 30min incubation
[3] = test system: human spermatozoa; test: change in acrosome-reacted (PNA+) sperm vs DMSO, no agonist (capacitating); higher = more of the measured sperm population than DMSO, for viability, fewer PI-positive (dead) cells than DMSO; settings: incubation time: 3h
[4] = test system: human spermatozoa; test: progressively motile sperm, percent change vs DMSO (capacitating); higher = more of the measured sperm population than DMSO, for viability, fewer PI-positive (dead) cells than DMSO; settings: incubation time: 30min incubation
[5] = test system: human spermatozoa; test: total motile sperm, percent change vs DMSO (non-capacitating); higher = more of the measured sperm population than DMSO, for viability, fewer PI-positive (dead) cells than DMSO
[6] = test system: HeLa; test: HeLa toxicity: nuclei-count effect normalised to DMSO (DMSO = 0); higher = more features changed / larger toxic effect; settings: incubation time: 24h incubation
[7] = test system: HeLa; test: Cell Painting percent induction (share of features beyond 2 z-scores vs DMSO); higher = more features changed / larger toxic effect; extreme values may be limits of the assay; settings: incubation time: 24h incubation
[8] = test system: human spermatozoa; test: viability fold change, 1 - (PI-positive fraction / DMSO median); higher = more of the measured sperm population than DMSO, for viability, fewer PI-positive (dead) cells than DMSO; settings: incubation time: 3h, non-capacitating
[9] = test system: human spermatozoa; test: progressively motile sperm, percent change vs DMSO (non-capacitating); higher = more of the measured sperm population than DMSO, for viability, fewer PI-positive (dead) cells than DMSO; extreme values may be limits of the assay
[10] = test system: HepG2; test: HepG2 toxicity (resazurin), effect normalised to DMSO (DMSO = 0); higher = more features changed / larger toxic effect; settings: incubation time: 70h incubation
[11] = incubation time: 10min incubation, 9.99 µM
[12] = incubation time: 10min incubation, 29.9 µM
[13] = incubation time: 3h incubation, 9.99 µM
[14] = incubation time: 3h incubation, 29.9 µM
[15] = incubation time: 6h incubation, 9.99 µM
[16] = incubation time: 6h incubation, 29.9 µM
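Throughout, for progressively motile sperm, percent change vs DMSO (non-capacitating): pooled live human sperm from at least 3 donors, tracked by automated microscopy in 0.5 s time-lapse movies, compounds at 10 and 30 µM, versus median of 16 DMSO wells per plate.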
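Throughout, for total motile sperm, percent change vs DMSO (non-capacitating): sperm pooled from at least 3 donors, tracked in 0.5 s time-lapse movies by automated microscopy after 10 min, 3 h or 6 h with compound at 10 or 30 µM.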

Row | SMILES | acrosome-reacted ([1]; 9.99 µM) [%] | acrosome-reacted ([1]; 29.9 µM) [%] | hyperactivated motile sperm ([2]; 9.99 µM) [%] | hyperactivated motile sperm ([2]; 29.9 µM) [%] | change in acrosome-reacted ([3]; 9.99 µM) [%] | change in acrosome-reacted ([3]; 29.9 µM) [%] | progressively motile sperm ([4]; 9.99 µM) [%] | progressively motile sperm ([4]; 29.9 µM) [%] | total motile sperm [5, 11] [%] | total motile sperm [5, 12] [%] | total motile sperm [5, 13] [%] | total motile sperm [5, 14] [%] | total motile sperm [5, 15] [%] | total motile sperm [5, 16] [%] | HeLa toxicity: nuclei-count effect normalised ([6]; 9.99 µM) [%] | HeLa toxicity: nuclei-count effect normalised ([6]; 29.9 µM) [%] | Cell Painting percent induction ([7]; 9.99 µM) [%] | Cell Painting percent induction ([7]; 29.9 µM) [%] | viability fold change ([8]; 9.99 µM) | viability fold change ([8]; 29.9 µM) | progressively motile sperm [9, 11] [%] | progressively motile sperm [9, 12] [%] | progressively motile sperm [9, 13] [%] | progressively motile sperm [9, 14] [%] | progressively motile sperm [9, 15] [%] | progressively motile sperm [9, 16] [%] | HepG2 toxicity ([10]; 10 µM) [%] | HepG2 toxicity ([10]; 30 µM) [%]
1 | Cc1ccc(S(=O)(=O)c2c(N)n(CC(O)c3ccc([N+](=O)[O-])cc3)c3nc4ccccc4nc23)cc1 (stereo unspecified) | 22.3 | 49.7 | 2.52 | -33 | 0.985 | 1.51 | 7.62 | 16.1 | 1.39 | 2.71 | 1.22 | -9.75 | -1.06 | -11.3 | 9.49 | 44.6 | 0.072 | 0.648 | -0.179 | 0.2 | 8.38 | 7.14 | 40.6 | 20.1 | 45.4 | 24.6 |  | 
2 | COc1ccc(CCCN2CCC(COC(c3ccccc3)c3ccccc3)CC2)cc1 | 4.02 | 18.6 | -18.3 | -70.2 | 1.43 | 2.85 | -2.66 | -7.92 | -0.81 | 2.28 | 0.77 | -5.61 | -0.213 | -15.3 | 11.7 | 80.9 | 0 | 10.8 | -1.38 | -1.52 | 1.8 | -4.83 | 20 | -8.53 | 32.7 | -19.4 | 1.6 | 103
3 | Cc1[nH]c(/C=C2\C(=O)Nc3ccc(S(=O)(=O)Cc4c(Cl)cccc4Cl)cc32)c(C)c1C(=O)N1CCC[C@@H]1CN1CCCC1 | -1.2 | 30.3 | -20.8 | -80.4 | 3.55 | 20.4 | -3.18 | -76.5 | -0.103 | -18.4 | -9.66 | -49.8 | -12.2 | -57.4 | 94.7 | 92.9 | 20.4 | 17.5 | -3.34 | -3.76 | 6.38 | -35.3 | 20.9 | -68.2 | 18.6 | -82 | 102 | 103
4 | COC(=O)c1c(C)[nH]c(C)c1C(=O)c1ccccc1Cc1ccccc1 | 25.4 | 48.8 | 21.1 | -0.915 | 0.874 | 0.596 | 13.4 | 14.7 | 0.541 | -1.51 | -6.62 | -4.77 | -5.32 | -5.3 | 4.01 | 0.735 | 0 | 0.18 | 0.0191 | -0.102 | -1.68 | -2.66 | 4.27 | -4.02 | 12.6 | 4.09 | -4.33 | 10.6
5 | CC(C)(C)c1ccc(S(=O)(=O)Nc2cnc3[nH]c(C(=O)N[C@H]4CCC[C@H]4O)c(-c4ccccc4)c3c2)cc1 | -55.5 | -40.6 | -89.9 | -90.6 | 0.406 | 0.723 | -49.7 | -49.4 | -3.11 | 0.824 | 2.99 | -0.471 | -0.468 | -0.141 |  |  |  |  | 0.0771 | 0.0653 | -18.5 | -14 | -13 | -11.7 | -9.71 | -14.5 | 3.81 | 16.8
6 | CNc1ccc2oc(C[C@H]3O[C@@]4(CC[C@H]3C)O[C@H]([C@H](C)C(=O)c3ccc[nH]3)[C@H](C)C[C@H]4C)nc2c1C(=O)O | 106 | 106 | -68.5 | -83.7 | 45.3 | 46.5 | -89.8 | -99.9 | -57.2 | -78.3 | -89.9 | -93.5 | -92 | -94.3 | 79.6 | 94.7 | 1.33 | 14.5 | -2.53 | -2.38 | -82.5 | -97.5 | -99.9 | -100 | -99.9 | -100 | 99.9 | 102
7 | COc1cc2ncn(-c3cc(OCc4ccccc4C(F)(F)F)c(C(N)=O)s3)c2cc1OC | 123 | 120 | 157 | 59.7 | 0.45 | -0.12 | -3.24 | -34.8 | -14.5 | -45.8 | -27.6 | -55.7 | -30.1 | -57.1 | 78.2 | 78.9 | 2.81 | 2.27 | -1.45 | -1.24 | 16.5 | -45.9 | 26.5 | -69.6 | 43.2 | -68.4 | 17.5 | 9.88
8 | O=C(N1CCCCC1)N1CCCCC1Cc1ccccc1 (stereo unspecified) | 6.47 | 7.82 | 6.11 | 3.93 |  |  | 9.35 | 20.1 | -0.235 | 4.54 | -3.63 | 0.0877 | -4.64 | -4.36 | -3.81 | -5.74 | 0 | 0 | 0.104 | -0.0769 | -0.571 | 5.81 | 19.1 | 18.1 | 17.3 | 16.4 | 5.44 | -4.3
9 | CN(C)CCCn1cc(C2=C(c3c[nH]c4ccccc34)C(=O)NC2=O)c2ccccc21 | -2.39 | -7.18 | 11.8 | -3.96 | 0.106 | 0.127 | 4 | 5.48 | 1.63 | 0.0178 | -1.97 | -13.1 | 1.29 | -6.7 | -5.34 | 3.61 | 0.072 | 0.072 | -0.204 | -0.45 | 3.74 | 4.75 | 9.83 | -7.22 | 23.9 | -4.1 | -5.59 | 8.33
10 | N=C(N)Nc1nc2ccccc2[nH]1 [2-Guanidinobenzimidazole] | -0.796 | -2.33 | -8.85 | -1.69 |  |  | 0.502 | 7.48 | 0.879 | -2.57 | 1.34 | -1.87 | 1.24 | -6.01 | 1.07 | -4.21 | 0 | 0.036 | -1.37 | -0.849 | 3.14 | 0.263 | 13 | 14 | 18.7 | 6.54 | 7.28 | -2.48
11 | CC(=O)N1CCC(C(=O)N(CCCN2CCN(Cc3ccc(F)cc3)CC2)c2ccc(C)c(Cl)c2)CC1 [B07 hydrochloride] | -7.75 | -16.6 | 4.68 | -29.9 | -0.33 | -0.655 | 2.3 | 5.54 | -3.45 | -1.62 | -0.778 | -4.4 | -2.31 | -8.75 | -8.22 | -2.4 | 0 | 0 | -0.0249 | -0.378 | -0.531 | -2.62 | 3.74 | -2.22 | 13.9 | -0.382 |  | 
12 | CC(C)(C)c1ccc(S(=O)(=O)Nc2ccc(OC(F)(F)F)c(F)c2-c2ccc(C(=O)O)c3ncccc23)cc1F [CCR6 inhibitor] | 4.58 | -1.79 | 12.5 | -21 | 0.627 | 0.716 | 3.94 | 10.4 | 2.36 | 5.45 | -5.06 | -0.0893 | -5.81 | -4.71 |  |  |  |  | -0.213 | -0.279 | 4.23 | 5.16 | 7.86 | 2.54 | 7.11 | -7.05 | 2.54 | -7.66
13 | CO[C@H]1[C@@H](OC)C[C@H](C)[C@@H](OC)C2=CC(=O)C=C(NC(=O)/C(C)=C/C=C/[C@H](OC)[C@@H](OC(N)=O)/C(C)=C/[C@@H]1C)C2=O [Herbimycin a] |  |  | -22.2 | -70.4 |  |  | 3.33 | -50.9 | 7.08 | 3.19 | -13.6 | -85.1 | -11.7 | -85 | 23.2 | 37.9 | 0.216 | 0 | -1.59 | -1.04 | 11.6 | -9.27 | -37.6 | -100 | -46.3 | -100 | 101 | 103
14 | CCS(=O)(=O)Nc1ccc2c(c1)/C(=C(/Nc1ccc(CN3CCCCC3)cc1)c1ccccc1)C(=O)N2 [Hesperadin hydrochloride] | -34.6 | -37.5 | -68.7 | -76 | 0.15 | 1.01 | -13.4 | -15.1 | -7.06 | -8.13 | -15.5 | -16.9 | -15.3 | -19 | 84.4 | 96.7 | 19.1 | 29.9 | -0.123 | -0.0637 | -47.3 | -48.7 | -44.8 | -57.8 | -44.4 | -55.4 |  | 
15 | CCCCCCOC(=O)[C@]1(O)C[C@@H]2O[C@@]1(C)n1c3ccccc3c3c4c(c5c6ccccc6n2c5c31)C(=O)NC4 [KT 5720] | 0.89 | 0.941 | 5.63 | -20.1 | 1.66 | 0.54 | 2.73 | -4.6 | -0.664 | -5.21 | 5.89 | -0.934 | 5.3 | 0.422 | -2.2 | 9.55 | 0 | 0.072 | -0.0644 | -0.13 | -3.28 | -15.1 | 16.6 | 6.24 | 29.8 | 17.9 |  | 
16 | NC(=O)c1cccnc1 [Nicotinamid] |  |  | 16 | 5.44 |  |  | 3.35 | 13.2 | 0.928 | 6.07 | -8.41 | -0.358 | -0.499 | 0.662 |  |  |  |  | -0.835 | -0.522 | 15.4 | 14.2 | -10.7 | 3.29 | 0.762 | -3.22 |  | 
17 | C[C@@H]1O[C@@H](O[C@H]2C[C@@H](O)[C@]3(CO)[C@H]4[C@H](O)C[C@]5(C)[C@@H](C6=CC(=O)OC6)CC[C@]5(O)[C@@H]4CC[C@]3(O)C2)[C@H](O)[C@H](O)[C@H]1O [Ouabain] |  |  |  |  |  |  |  |  |  |  |  |  |  |  | 72.1 | 70.1 | 0.54 | 0.324 |  |  |  |  |  |  |  |  | 94.6 | 93.2
18 | c1cnc2c(c1)ccc1cccnc12 [Phenanthroline] | 8.37 | 9.76 | 18.4 | 17.2 | 0.27 | 0.435 | 10.3 | 16.3 | -2.32 | -4.26 | 3.46 | -8.46 | -1.8 | -11.3 | 46 | 43 | 1.08 | 1.15 | 0.0432 | -0.258 | -0.0696 | -0.36 | 1.8 | -21.2 | -1.34 | -23.3 |  | 
